Measurements: patent publication US20110021530A1, “PYRIDAZINE DERIVATIVES AND THEIR USE AS THERAPEUTIC AGENTS IN THE TREATMENT OF SKIN DISORDERS” (XENON PHARMACEUTICALS INC., priority 2008, published 2011)

Experiments:
[1] = target: T1, stearoyl-CoA desaturase (SCD) (Mus musculus, UniProt P13516); experiment: HTS microsomal assay of stearoyl-CoA desaturase inhibition using mouse liver microsomes; type: biochemical; settings: % SCD enzyme activity remaining at 10 μM test compound
T1 construct: Reactions are started by adding 2 mg of microsomal protein; from tissue; host or cells: liver microsomes of male ICR mice on a high-carbohydrate, low fat diet
T1 sequence (P13516 1-355): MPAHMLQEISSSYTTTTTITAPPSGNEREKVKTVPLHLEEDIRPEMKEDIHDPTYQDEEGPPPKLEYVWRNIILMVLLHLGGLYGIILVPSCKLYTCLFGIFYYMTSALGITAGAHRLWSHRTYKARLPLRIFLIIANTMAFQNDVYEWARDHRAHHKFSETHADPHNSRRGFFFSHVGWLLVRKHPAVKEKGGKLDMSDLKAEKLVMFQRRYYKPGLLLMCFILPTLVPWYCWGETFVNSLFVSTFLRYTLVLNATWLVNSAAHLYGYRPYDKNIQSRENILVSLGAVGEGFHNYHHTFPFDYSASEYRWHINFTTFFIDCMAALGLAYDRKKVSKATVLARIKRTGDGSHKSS
Procedure: The absence of mitochondrial contamination is enzymatically assessed.
The compounds are analyzed with an HTS microsomal assay.

SCD = target: T2, SCD (Mus musculus, UniProt P13516); experiment: Mouse SCD IC50 determination for compounds active in the HTS assay; type: biochemical
T2 sequence (P13516 1-355): T1 sequence (P13516 1-355)
Procedure: The compounds are analyzed with an HTS microsomal assay. The activities are defined in terms of % SCD enzyme activity remaining at the selected concentration (e.g., 10 μM) of the test compounds.

HEPG2 = HEPG2 IC50; type: cell-based; settings: Homo sapiens

| melting point | Mouse microsome SCD activity % remaining @ 10 μM [1] | IC50 (SCD) | IC50 (HEPG2) | SMILES |
| --- | --- | --- | --- | --- |
| > 300 °C |  |  |  | O=C(NCCC1CC1)Nc1ccc(N2CCN(C(=O)c3ccccc3C(F)(F)F)CC2)nn1 |
|  | 6% | 150 nM | 70 nM | O=C(NCCC1CC1)c1ccc(N2CCN(C(=O)c3cc(C(F)(F)F)ccc3C(F)(F)F)CC2)nn1 [6-[4-(2,5-BIS-TRIFLUOROMETHYLBENZOYL)PIPERAZIN-1-YL]PYRIDAZINE-3-CARBOXYLIC ACID (2-CYCLOPROPYLETHYL)AMIDE] |
|  | 8% | 180 nM | 60 nM | O=C(NCCC1CC1)c1ccc(N2CCN(Cc3cc(Cl)ccc3Cl)CC2)nn1 [6-[4-(2,5-DICHLOROBENZYL)PIPERAZIN-1-YL]PYRIDAZINE-3-CARBOXYLIC ACID (2-CYCLOPROPYLETHYL)AMIDE] |
|  | 23% | 450 nM | 640 nM | CC(C)CCNC(=O)c1ccc(N2CCN(C(=O)c3ccccc3N)CC2)nn1 [6-[4-(2-AMINOBENZOYL)PIPERAZIN-1-YL]PYRIDAZINE-3-CARBOXYLIC ACID (3-METHYLBUTYL)AMIDE] |
|  | 11% | 130 nM | 70 nM | O=C(NCCC1CC1)c1ccc(N2CCN(Cc3ccc(F)cc3Cl)CC2)nn1 [6-[4-(2-CHLORO-4-FLUOROBENZYL)PIPERAZIN-1-YL]PYRIDAZINE-3-CARBOXYLIC ACID (2-CYCLOPROPYLETHYL)AMIDE] |
|  | 8% | 80 nM | 120 nM | CC(C)CCNC(=O)c1ccc(N2CCN(C(=O)c3ccccc3[N+](=O)[O-])CC2)nn1 [6-[4-(2-NITROBENZOYL)PIPERAZIN-1-YL]PYRIDAZINE-3-CARBOXYLIC ACID (3-METHYLBUTYL)AMIDE] |
|  | 49% | 8690 nM | 5520 nM | O=C(NCC1CC1)c1ccc(N2CCN(C(=O)c3ccccc3C(F)(F)F)CC2)nn1 [6-[4-(2-TRIFLUOROMETHYLBENZOYL)PIPERAZIN-1-YL]PYRIDAZINE-3-CARBOXYLIC ACID CYCLOPROPYLMETHYLAMIDE] |
| 179 to 181 °C | 5% | 20 nM | 20 nM | O=C(NCCc1ccc(F)cc1F)c1ccc(N2CCN(C(=O)c3ccccc3C(F)(F)F)CC2)nn1 [6-[4-(2-TRIFLUOROMETHYLBENZOYL)PIPERAZIN-1-YL]PYRIDAZINE-3-CARBOXYLIC ACID [2-(2,4-DIFLUOROPHENYL)ETHYL]AMIDE] |
|  | 7% | 260 nM | 290 nM | O=C(NCCC1CC1)c1ccc(N2CCN(C(=O)c3ccoc3C(F)(F)F)CC2)nn1 [6-[4-(2-TRIFLUOROMETHYLFURAN-3-CARBONYL)PIPERAZIN-1-YL]PYRIDAZINE-3-CARBOXYLIC ACID (2-CYCLOPROPYLETHYL)AMIDE] |
|  | 8% | 110 nM | 120 nM | CC(C(=O)N1CCN(c2ccc(C(=O)NCCC3CC3)nn2)CC1)(C(F)(F)F)C(F)(F)F [6-[4-(3,3,3-TRIFLUORO-2-METHYL-2-TRIFLUOROMETHYLPROPIONYL)PIPERAZIN-1-YL]PYRIDAZINE-3-CARBOXYLIC ACID (2-CYCLOPROPYLETHYL)AMIDE] |
|  | 8% | 480 nM | 120 nM | O=C(NCCC1CC1)c1ccc(N2CCN(C(=O)CC(O)(C(F)(F)F)C(F)(F)F)CC2)nn1 [6-[4-(4,4,4-TRIFLUORO-3-HYDROXY-3-TRIFLUOROMETHYLBUTYRYL)PIPERAZIN-1-YL]PYRIDAZINE-3-CARBOXYLIC ACID (2-CYCLOPROPYLETHYL)AMIDE] |
|  | 9% | 340 nM | 540 nM | CC(=CC(=O)N1CCN(c2ccc(C(=O)NCCC(C)C)nn2)CC1)C(F)(F)F [6-[4-(4,4,4-TRIFLUORO-3-METHYLBUT-2-ENOYL)PIPERAZIN-1-YL]PYRIDAZINE-3-CARBOXYLIC ACID (3-METHYLBUTYL)AMIDE] |
|  | 12% | 20 nM | 10 nM | O=C(NCCC1CC1)c1ccc(N2CCN(Cc3ccc(F)cc3C(F)(F)F)CC2)nn1 [6-[4-(4-FLUORO-2-TRIFLUOROMETHYLBENZYL)-PIPERAZIN-1-YL]PYRIDAZINE-3-CARBOXYLIC ACID (2-CYCLOPROPYLETHYL)AMIDE] |
|  | 8% | 80 nM | 240 nM | CC(C)CCNC(=O)c1ccc(N2CCN(C(=O)c3cnccc3C(F)(F)F)CC2)nn1 [6-[4-(4-TRIFLUOROMETHYLPYRIDINE-3-CARBONYL)PIPERAZIN-1-YL]PYRIDAZINE-3-CARBOXYLIC ACID (3-METHYLBUTYL)AMIDE] |
|  | 7% | 60 nM | 40 nM | O=C(NCCC1CC1)c1ccc(N2CCN(Cc3cc(Cl)ccc3C(F)(F)F)CC2)nn1 [6-[4-(5-CHLORO-2-TRIFLUOROMETHYLBENZYL)PIPERAZIN-1-YL]PYRIDAZINE-3-CARBOXYLIC ACID (2-CYCLOPROPYLETHYL)AMIDE] |
|  | 3% | 20 nM | 20 nM | O=C(NCCC1CC1)c1ccc(N2CCN(Cc3cc(F)ccc3C(F)(F)F)CC2)nn1 [6-[4-(5-FLUORO-2-TRIFLUOROMETHYLBENZYL)PIPERAZIN-1-YL]PYRIDAZINE-3-CARBOXYLIC ACID (2-CYCLOPROPYLETHYL)AMIDE] |
|  | 8% | 180 nM | 60 nM | O=C(NCCCC1CC1)c1ccc(N2CCN(Cc3cc(F)ccc3C(F)(F)F)CC2)nn1 [6-[4-(5-FLUORO-2-TRIFLUOROMETHYLBENZYL)PIPERAZIN-1-YL]PYRIDAZINE-3-CARBOXYLIC ACID (3-CYCLOPROPYLPROPYL)AMIDE] |
| 148 to 151 °C |  |  |  | CC(C)CCNC(=O)c1ccc(N2CCN(C(=O)c3cc(Cl)ccc3C(F)(F)F)CC2)nn1 [Example 3.7, 6-[4-(5-CHLORO-2-TRIFLUOROMETHYLBENZOYL)PIPERAZIN-1-YL]PYRIDAZINE-3-CARBOXYLIC ACID (3-METHYLBUTYL)AMIDE] |
| 181 to 183 °C |  |  |  | CC(O)(C(=O)N1CCN(c2ccc(C(=O)NCCC3CC3)nn2)CC1)C(F)(F)F (stereo not drawn) [Example 14.8, 6-[4-(3,3,3-TRIFLUORO-2-HYDROXY-2-METHYLPROPIONYL)PIPERAZIN-1-YL]PYRIDAZINE-3-CARBOXYLIC ACID (2-CYCLOPROPYLETHYL)AMIDE] |
| 236 to 240 °C |  |  |  | CC(C)(C)C(O)CNC(=O)c1ccc(N2CCN(C(=O)c3ccccc3C(F)(F)F)CC2)nn1 (stereo not drawn) [Example 15.29, 6-[4-(2-TRIFLUOROMETHYLBENZOYL)PIPERAZIN-1-YL]PYRIDAZINE-3-CARBOXYLIC ACID (2-HYDROXY-3,3-DIMETHYLBUTYL)AMIDE] |
| 186 to 189 °C |  |  |  | CC(C)(C)C(O)CNC(=O)c1ccc(N2CCN(C(=O)c3cc(F)ccc3C(F)(F)F)CC2)nn1 (stereo not drawn) [Example 15.30, 6-[4-(5-FLUORO-2-TRIFLUOROMETHYLBENZOYL)PIPERAZIN-1-YL]PYRIDAZINE-3-CARBOXYLIC ACID (2-HYDROXY-3,3-DIMETHYLBUTYL)AMIDE] |
| 43 to 45 °C |  |  |  | CC(C)CCCNC(=O)c1ccc(N2CCN(C(=O)c3ccccc3C(F)(F)F)CC2)nn1 [Example 15.33, 6-[4-(2-TRIFLUOROMETHYLBENZOYL)PIPERAZIN-1-YL]PYRIDAZINE-3-CARBOXYLIC ACID (4-METHYLPENTYL)AMIDE] |
| 117 to 119 °C |  |  |  | O=C(NCC(O)c1cccc(F)c1)c1ccc(N2CCN(C(=O)c3ccccc3C(F)(F)F)CC2)nn1 (stereo not drawn) [Example 27.4, 6-[4-(2-TRIFLUOROMETHYLBENZOYL)PIPERAZIN-1-YL]PYRIDAZINE-3-CARBOXYLIC ACID [2-(3-FLUOROPHENYL)-2-HYDROXYETHYL]AMIDE] |
| 151 to 154 °C |  |  |  | O=C(NCCc1ccccn1)c1ccc(N2CCN(C(=O)c3ccccc3C(F)(F)F)CC2)nn1 [Example 28.2, 6-[4-(2-TRIFLUOROMETHYLBENZOYL)PIPERAZIN-1-YL]PYRIDAZINE-3-CARBOXYLIC ACID (2-PYRIDIN-2-YLETHYL)AMIDE] |
| 179 to 181 °C |  |  |  | O=C(NCc1ccccn1)c1ccc(N2CCN(C(=O)c3ccccc3C(F)(F)F)CC2)nn1 [Example 30, 6-[4-(2-TRIFLUOROMETHYLBENZOYL)PIPERAZIN-1-YL]PYRIDAZINE-3-CARBOXYLIC ACID (PYRIDIN-2-YL-METHYL)AMIDE] |
| 162 to 164 °C |  |  |  | O=C(NCCc1ccc2c(c1)OCO2)c1ccc(N2CCN(C(=O)c3ccccc3C(F)(F)F)CC2)nn1 [Example 30.1, 6-[4-(2-TRIFLUOROMETHYLBENZOYL)PIPERAZIN-1-YL]PYRIDAZINE-3-CARBOXYLIC ACID (2-BENZO[1,3]DIOXOL-5-YL-ETHYL)AMIDE] |
| 117 to 120 °C |  |  |  | O=C(NCCC1CC1)c1ccc(N2CCN(C(=S)c3ccccc3C(F)(F)F)CC2)nn1 [Example 31, 6-[4-(2-TRIFLUOROMETHYLTHIOBENZOYL)PIPERAZIN-1-YL]-PYRIDAZINE-3-CARBOXYLIC ACID (2-CYCLOPROPYLETHYL)AMIDE] |

| SMILES | melting point | Mouse microsome SCD activity % remaining @ 10 μM [1] | IC50 (SCD) | IC50 (HEPG2) |
| --- | --- | --- | --- | --- |
| COc1ccc(CCNC(=O)c2ccc(N3CCN(C(=O)c4ccccc4C(F)(F)F)CC3)nn2)cc1 [6-[4-(2-TRIFLUOROMETHYLBENZOYL)PIPERAZIN-1-YL]PYRIDAZINE-3-CARBOXYLIC ACID [2-(4-METOXYPHENYL)ETHYL]AMIDE] |  | 7% | 1630 nM | 80 nM |
